Experimental data reported in patent US10000525B2, “Non-hormonal steroid modulators of NF-κB for treatment of disease” (ReveraGen Biopharma, Inc, priority 2010, dated 2018).

Key:
mdx mice [1] = test: mdx mouse model: histological evaluation (H&E) of gastrocnemius muscle; format: in vivo; details: for degeneration of skeletal muscle (H&E) / inflammation of skeletal muscle (H&E) / regenerating muscle fibers (H&E): 20 and 40 mg/kg/day per oral in feed, 3 months, in comparison to untreated and prednisolone treated mdx mice
Protocol: (§1) Separate groups (n=12-14) of mdx mice were treated with prednisolone (5 mg/kg/day; per oral in feed), Example 1 (20 and 40 mg/kg/day; per oral in feed) and Example 2 (20 and 40 mg/kg/day; per oral in feed) for 3 months. All mice underwent 30 min biweekly treadmill exercise during the treatment duration to unmask the mild disease phenotype of mdx mouse model.
Hematoxylin and Eosin staining of gastrocnemius muscle of untreated mdx mice show significant degeneration and inflammation. […] Continuous administration of prednisolone appeared to increase degeneration and decrease in regeneration of dystrophic skeletal muscle.

mdx mice [2] = test: In vivo mdx mouse model of dystrophy: body weight and muscle mass; details: 5 mg/kg/day per oral in feed, at 33.8 weeks age
Protocol: as §1

[3] = system: extensor digitorum longus (EDL) muscle; test: mdx mouse model: in vitro force contractions of EDL muscle; format: in vivo; details: mdx mice, prednisolone 5 mg/kg/day per oral in feed, 3 months
Protocol: as §1
The distal tendon of the extensor digitorum longus (EDL) muscle was tied securely to the lever arm of a servomotor/force transducer (model 305B, Aurora Scientific, Richmond Hill, ON, Canada) and the proximal tendon to a tissue clamp. Muscles were stimulated between two platinum electrodes. […] With the muscle held at Lo using stimulation frequencies of 30, 50, 80, 100, 120 and 150 Hz, the maximum isometric tetanic force (Po) developed during a 300 ms train of stimulation pulses was recorded for the EDL muscle. The muscle length was then measured with calipers and after removal of the muscle from the bath the mass of the muscle was determined. For each muscle, the optimum fiber length (Lf) was calculated by multiplying Lo by a previously determined Lf/Lo ratio of 0.45. […]

[4] = continuous administration, 5 mg/kg/day per oral in feed

SMILES | degeneration of skeletal muscle (H&E) (mdx mice [1]) | inflammation of skeletal muscle (H&E) (mdx mice [1]) | regenerating muscle fibers (H&E) (mdx mice [1]) | body weight versus untreated mice (mdx mice [2]) | specific force of EDL muscle, versus untreated group [3] | degeneration of dystrophic skeletal muscle (H&E) (mdx mice [1]; [4]) | regeneration of dystrophic skeletal muscle (H&E) (mdx mice [1]; [4])
C[C@]12CCC(=O)C=C1CCC1C2=CC[C@@]2(C)C1CC[C@]2(O)C(=O)CO (stereo partly drawn) [Example 1, (10S,13S,17R)-17-hydroxy-17-(2-hydroxyacetyl)-10,13-dimethyl-6,7,8,10,12,13,14,15,16,17-decahydro-1H-cyclopenta[a]phenanthren-3(2H)-one] | significant decrease | significant decrease | increase | – | – | – | –
C[C@]12C=CC(=O)C=C1CCC1C2=CC[C@@]2(C)C1CC[C@]2(O)C(=O)CO (stereo partly drawn) [Example 2, (10S,13S,17R)-17-hydroxy-17-(2-hydroxyacetyl)-10,13-dimethyl-6,7,8,10,12,13,14,15,16,17-decahydro-3H-cyclopenta[a]phenanthren-3-one] | significant decrease | significant decrease | increase | – | – | – | –
C[C@]12C=CC(=O)C=C1CC[C@@H]1[C@@H]2[C@@H](O)C[C@@]2(C)[C@H]1CC[C@]2(O)C(=O)CO [Prednisolone, reference compound] | – | – | – | significantly lower body weight | no statistically significant (P<0.05) difference | increase | decrease
